Results: patent US7732424B2, “Purine derivatives and methods of use thereof” (Inotek Pharmaceuticals Corporation, priority 2005, dated 2010)
pKi: −log10 of the molar value. Like-named read-outs stand apart in the source and are kept apart here.

How the values were obtained:
[1] = target: T1, human recombinant A3 adenosine receptor (Homo sapiens, UniProt P0DMS8); experiment: Adenosine A3 receptor binding, displacement of [^3H]NECA in transfected HEK cells; settings: displacement of specific [^3H]NECA binding, geometric mean
T1 construct: expressed in transfected cells
T1 sequence (P0DMS8 1-318): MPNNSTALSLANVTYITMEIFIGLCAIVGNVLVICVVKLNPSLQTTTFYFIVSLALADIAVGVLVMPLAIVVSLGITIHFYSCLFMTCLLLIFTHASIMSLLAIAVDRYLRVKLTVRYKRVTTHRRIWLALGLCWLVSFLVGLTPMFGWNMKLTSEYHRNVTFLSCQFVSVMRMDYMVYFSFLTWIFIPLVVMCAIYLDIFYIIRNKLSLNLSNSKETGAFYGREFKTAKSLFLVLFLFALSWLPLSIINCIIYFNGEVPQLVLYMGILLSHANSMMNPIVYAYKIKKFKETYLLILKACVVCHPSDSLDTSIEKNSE
Method: (§1) Membranes for radioligand binding experiments were prepared from fresh or frozen cells as described in Klotz et al., Naunyn-Schmiedeberg's Arch. Pharmacol., 357:1-9 (1998). The cell suspension was then homogenized in ice-cold hypotonic buffer (5 mM Tris/HCl, 2 mM EDTA, pH 7.4) and the resultant homogenate was spun for 10 minutes (4° C.) at 1,000 g. The membranes were then sedimented from the supernatant for 30 minutes at 100,000 g and resuspended in 50 mM Tris/HCl buffer pH 7.4 (for A3 adenosine receptors: 50 mM Tris/HCl, 10 mM MgCl2, 1 mM EDTA, pH 8.25), frozen in liquid nitrogen at a protein concentration of 1-3 mg/mL and stored at −80° C.
(§2) Nonspecific binding was determined in the presence of 100 μM R-PIA and 1 mM theophylline, respectively. For details see Klotz et al., Naunyn-Schmiedeberg's Arch. Pharmacol., 357:1-9, 1998. All binding data were calculated by non-linear curve fitting using the program SCTFIT (De Lean et al., Mol. Pharm. 1982, 21:5-16).

[2] = target: human recombinant A1 adenosine receptor (Homo sapiens, UniProt P30542); experiment: Adenosine A1 receptor binding, displacement of [^3H]CCPA in transfected CHO cells
Chain of human recombinant A1 adenosine receptor (P30542 whole entry): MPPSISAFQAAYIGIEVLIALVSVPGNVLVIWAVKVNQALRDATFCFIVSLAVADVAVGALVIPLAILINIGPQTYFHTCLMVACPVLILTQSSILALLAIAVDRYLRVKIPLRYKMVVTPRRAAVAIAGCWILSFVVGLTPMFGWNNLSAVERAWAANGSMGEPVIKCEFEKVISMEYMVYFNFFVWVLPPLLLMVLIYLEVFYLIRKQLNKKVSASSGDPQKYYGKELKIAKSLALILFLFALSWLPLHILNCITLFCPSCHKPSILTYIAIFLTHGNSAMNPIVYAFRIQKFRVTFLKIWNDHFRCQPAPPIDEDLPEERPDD
Method: as §1, §2

[3] = target: T2, human recombinant A2A adenosine receptor (Homo sapiens, UniProt P29274); experiment: Adenosine A2A receptor binding, displacement of [^3H]NECA in transfected CHO cells
T2 construct: expressed in transfected cells
T2 sequence (P29274 whole entry): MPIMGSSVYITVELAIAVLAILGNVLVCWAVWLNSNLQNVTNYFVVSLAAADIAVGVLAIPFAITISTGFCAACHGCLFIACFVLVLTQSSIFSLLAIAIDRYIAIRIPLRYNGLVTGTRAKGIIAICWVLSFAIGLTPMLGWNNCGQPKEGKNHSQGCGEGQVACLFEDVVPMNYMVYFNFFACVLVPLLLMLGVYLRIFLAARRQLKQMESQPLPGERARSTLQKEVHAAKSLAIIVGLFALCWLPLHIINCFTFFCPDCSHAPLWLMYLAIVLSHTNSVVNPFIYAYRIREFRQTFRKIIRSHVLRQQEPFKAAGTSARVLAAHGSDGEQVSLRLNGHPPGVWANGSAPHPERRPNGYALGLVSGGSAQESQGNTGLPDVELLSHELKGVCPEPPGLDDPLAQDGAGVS
Method: as §1, §2

male Sprague-Dawley rats = experiment: Effect on core body temperature in rats; type: in vivo; design: Rectal Temperature: unit not given here; settings: for Behavior / Rectal Temperature / Respiratory Rate / Respiration Rate: rat at 13° C., 15 mg/kg JV then 20 mg/mL at 1 mL/h
Method: Their rectal temperature, respiratory rate, and behavior were recorded following 5 min, 10 min, 20 min, 30 min, 1 h, 1.5 h, 2 h, 2.5 h, 3 h, 3.5 h, and 4 h.

[4] = tested on: New Zealand white rabbits; experiment: Effect on intraocular pressure (IOP) in rabbits; type: in vivo, rabbit
Method: The effect of an illustrative Purine Derivative on intraocular pressure (IOP) was examined in New Zealand white rabbits. New Zealand white rabbits undergo a circadian change in intraocular pressure, such that lowest pressure values occur in the early morning and peak pressure values occur in the afternoon. […] Consistency of measurements is indicated by the fact the intraocular pressure at t=−23 hours and t=25 hours is essentially the same (see FIGS. 1-5).
One rabbit was administered with each each dose level. […] Thus, Compound I′-1 was administered when the level of intraocular pressure was low relative to other timepoints during the day and night.

OC[C@H]1O[C@@H](n2cnc3c(NC4(CO)CCCC4)nc(Cl)nc32)[C@H](O)[C@@H]1O [I′-19]
pKi [1]: 5.22 | pKi [2]: 8.19 | pKi [3]: 4.62

OC[C@H]1O[C@@H](n2cnc3c(NC4CCCC4)nc(Cl)nc32)[C@H](O)[C@@H]1O [[^3H]CCPA, 2-chloro-N^6-[^3H]cyclopentyladenosine, reference compound]
pKi ([3]; displacement of specific [^3H]NECA binding, CHO cells, geometric mean, read-out: Ki(A2A)): 5.64

OC[C@H]1O[C@@H](n2cnc3c(NC4(CO)CCCC4)ncnc32)[C@H](O)[C@@H]1O [I′-1]
pKi [1]: 5.11 | pKi [2]: 8.17 | Behavior (male Sprague-Dawley rats; Animal #1, 0 min): normal | Rectal Temperature (male Sprague-Dawley rats; Animal #1, 0 min): 38 | Respiratory Rate (male Sprague-Dawley rats; Animal #1, 0 min): 210 min⁻¹ | Behavior (male Sprague-Dawley rats; Animal #1, 5 min): sleep/ | Rectal Temperature (male Sprague-Dawley rats; Animal #1, 5 min): 38 | Behavior (male Sprague-Dawley rats; Animal #1, 10 min): sleep/ | Rectal Temperature (male Sprague-Dawley rats; Animal #1, 10 min): 37 | Respiratory Rate (male Sprague-Dawley rats; Animal #1, 10 min): 69 min⁻¹ | Behavior (male Sprague-Dawley rats; Animal #1, 20 min): sleep | Rectal Temperature (male Sprague-Dawley rats; Animal #1, 20 min): 36 | Respiratory Rate (male Sprague-Dawley rats; Animal #1, 20 min): 66 min⁻¹ | Behavior (male Sprague-Dawley rats; Animal #1, 30 min): sleep | Rectal Temperature (male Sprague-Dawley rats; Animal #1, 30 min): 36 | Respiratory Rate (male Sprague-Dawley rats; Animal #1, 30 min): 75 min⁻¹ | Behavior (male Sprague-Dawley rats; Animal #1, 1 h): sleep | Rectal Temperature (male Sprague-Dawley rats; Animal #1, 1 h): 32 | Respiration Rate (male Sprague-Dawley rats; Animal #1, 1 h): 42 min⁻¹ | Behavior (male Sprague-Dawley rats; Animal #1, 1.5 h): sleep | Rectal Temperature (male Sprague-Dawley rats; Animal #1, 1.5 h): 29 | Respiration Rate (male Sprague-Dawley rats; Animal #1, 1.5 h): 45 min⁻¹ | Behavior (male Sprague-Dawley rats; Animal #1, 2 h): sleep | Rectal Temperature (male Sprague-Dawley rats; Animal #1, 2 h): 27 | Respiration Rate (male Sprague-Dawley rats; Animal #1, 2 h): 54 min⁻¹ | Behavior (male Sprague-Dawley rats; Animal #1, 2.5 h): sleep | Rectal Temperature (male Sprague-Dawley rats; Animal #1, 2.5 h): 25 | Respiration Rate (male Sprague-Dawley rats; Animal #1, 2.5 h): 51 min⁻¹ | Behavior (male Sprague-Dawley rats; Animal #1, 3 h): sleep | Rectal Temperature (male Sprague-Dawley rats; Animal #1, 3 h): 24 | Respiration Rate (male Sprague-Dawley rats; Animal #1, 3 h): 42 min⁻¹ | Behavior (male Sprague-Dawley rats; Animal #1, 3.5 h): sleep | Rectal Temperature (male Sprague-Dawley rats; Animal #1, 3.5 h): 23 | Respiration Rate (male Sprague-Dawley rats; Animal #1, 3.5 h): 42 min⁻¹ | Behavior (male Sprague-Dawley rats; Animal #1, 4 h): sleep | Rectal Temperature (male Sprague-Dawley rats; Animal #1, 4 h): 21 | Respiration Rate (male Sprague-Dawley rats; Animal #1, 4 h): 42 min⁻¹ | Behavior (male Sprague-Dawley rats; Animal #2, 0 min): normal | Rectal Temperature (male Sprague-Dawley rats; Animal #2, 0 min): 39 | Respiratory Rate (male Sprague-Dawley rats; Animal #2, 0 min): 220 min⁻¹ | Behavior (male Sprague-Dawley rats; Animal #2, 5 min): normal | Rectal Temperature (male Sprague-Dawley rats; Animal #2, 5 min): 39 | Respiratory Rate (male Sprague-Dawley rats; Animal #2, 5 min): 99 min⁻¹ | Behavior (male Sprague-Dawley rats; Animal #2, 10 min): sleep/ | Rectal Temperature (male Sprague-Dawley rats; Animal #2, 10 min): 38 | Respiratory Rate (male Sprague-Dawley rats; Animal #2, 10 min): 84 min⁻¹ | Behavior (male Sprague-Dawley rats; Animal #2, 20 min): sleep/ | Rectal Temperature (male Sprague-Dawley rats; Animal #2, 20 min): 37 | Respiratory Rate (male Sprague-Dawley rats; Animal #2, 20 min): 57 min⁻¹ | Behavior (male Sprague-Dawley rats; Animal #2, 30 min): sleep/ | Rectal Temperature (male Sprague-Dawley rats; Animal #2, 30 min): 37 | Respiratory Rate (male Sprague-Dawley rats; Animal #2, 30 min): 51 min⁻¹ | Behavior (male Sprague-Dawley rats; Animal #2, 1 h): sleep | Rectal Temperature (male Sprague-Dawley rats; Animal #2, 1 h): 33 | Respiration Rate (male Sprague-Dawley rats; Animal #2, 1 h): 36 min⁻¹ | Behavior (male Sprague-Dawley rats; Animal #2, 1.5 h): sleep | Rectal Temperature (male Sprague-Dawley rats; Animal #2, 1.5 h): 30 | Respiration Rate (male Sprague-Dawley rats; Animal #2, 1.5 h): 36 min⁻¹ | Behavior (male Sprague-Dawley rats; Animal #2, 2 h): sleep | Rectal Temperature (male Sprague-Dawley rats; Animal #2, 2 h): 28 | Respiration Rate (male Sprague-Dawley rats; Animal #2, 2 h): 36 min⁻¹ | Behavior (male Sprague-Dawley rats; Animal #2, 2.5 h): sleep | Rectal Temperature (male Sprague-Dawley rats; Animal #2, 2.5 h): 27 | Respiration Rate (male Sprague-Dawley rats; Animal #2, 2.5 h): 30 min⁻¹ | Behavior (male Sprague-Dawley rats; Animal #2, 3 h): sleep | Rectal Temperature (male Sprague-Dawley rats; Animal #2, 3 h): 26 | Respiration Rate (male Sprague-Dawley rats; Animal #2, 3 h): 27 min⁻¹ | Behavior (male Sprague-Dawley rats; Animal #2, 3.5 h): sleep | Rectal Temperature (male Sprague-Dawley rats; Animal #2, 3.5 h): 25 | Respiration Rate (male Sprague-Dawley rats; Animal #2, 3.5 h): 24 min⁻¹ | Behavior (male Sprague-Dawley rats; Animal #2, 4 h): sleep | Rectal Temperature (male Sprague-Dawley rats; Animal #2, 4 h): 25 | Respiration Rate (male Sprague-Dawley rats; Animal #2, 4 h): 27 min⁻¹ | Effect on core body temperature (conclusion) (male Sprague-Dawley rats; rats, Tables 3A and 3B): reduces an animal's core body temperature | Survival of the animals (male Sprague-Dawley rats; two rats, 15 mg/kg JV then 20 mg/mL at 1 mL/h for 4 hours): Both animals survived the experiment | Effect on intraocular pressure (conclusion) ([4]; FIGS. 1-5): reduces an animal's intraocular pressure | Time of recovery of intraocular pressure values to normal levels ([4]; administered concentration 0.3 mg/mL (FIG. 1)): ~6 h | Time of recovery of intraocular pressure values to normal levels ([4]; administered concentration 30 mg/mL (FIG. 5)): > 7 h | Intraocular pressure course after administration ([4]; one drop to one eye at t=0 hours, FIGS. 1-5): the intraocular pressure did not increase to the normal day values | Eye irritation ([4]; topical ocular, 0.3-30.0 mg/mL): No eye irritation was observed in any animal | pKi [3]: 4.55
